These results are taken from patent US5593678A, “Protection of teleost fish” (University of Georgia Research Foundation, priority 1994, dated 1997).

Where two headings read alike, the source gives them in different places.

Data set [1] relates to NCC from stressed fish (lysis of IM-9 target cells). Particulars: for Percent Specific Release (stressed fish): 100:1, control 0.9. On the procedure:
(§1) A ^51 Cr release assay was used to determine cytotoxicity. Target cells at 1-2×10^6 cells/ml were labeled with 100 μCi of sodium chromate (Amersham, Arlington Heights, Ill.). NCC effector cells were treated as previously described [Evans et al. (1988) supra], centrifuged (500 g), and resuspended in media and added at different E:T ratios to the labeled target cells in round-bottomed 96-well microtiter plates. This mixture was incubated (25° C.) for 4-6 hours and 100 μl of each supernatant was removed to determine radioactivity (Beckman Biogamma II Counter; Beckman Instruments, Irvine, Calif.). The results are expressed as either percentage specific release (SR)=[(test release--spontaneous release)/(total release--spontaneous release)]×100; percent inhibition=[(percentage control SR--percentage test SR)/percentage control SR]×100; and percentage increase=(percentage test SR--percentage control SR)/percentage control SR.
A common observation in fish exposed to stress, e.g., toxicants, drastic temperature changes, handling, etc., is the temporary loss of NCC activity.

For data set [2], the system named is IM-9 target cells. On the procedure:
In further studies, NCC were treated with different concentrations of protein phosphatase inhibitors for two hours and labeled IM-9 target cells were added for a four-hour microcytotoxicity assay (Table 8). […] To determine if the activating effects of the protein phosphatase inhibitors were reversible, NCC were treated for 90 minutes with NaF and vanadate and then the inhibitors were removed prior to addition of the labeled target cells.

The test system of data set [3] is phosphotidylinositol phosphate phosphatase. The settings on record: cited from earlier work.
In data set [4] the test system is NCC (lysis of IM-9 target cells). The settings on record: for Percentage of control (NCC cytotoxic activity): 120 minutes; for effect of removal of inhibitor on NCC activation (words): 90 minutes treatment, washed, E:T 40:1. On the procedure:
FIG. 4. Individual and combined effects of phosphatase inhibitors on NCC cytotoxicity, NCC (7×10^5 cells) were incubated with either media (.diamond.), vanadate (Δ) (5 mM). NaF (.smallcircle.) (20 mM), or both vanadate and NaF (.quadrature.) for the indicated time periods before addition to labeled IM-9 target cells.
FIG. 5. Effects of removal of Na3 VO4 on NCC activation. NCC were harvested, incubated for three hours, washed, counted and added to duplicate tubes containing either media alone or media containing 2.5, 5 and 10 mM vanadate. Following a 90 minutes incubation time, the cells were either washed and resuspended in media (closed circles) or added directly (open circles) to wells containing ^51 chromium labeled IM-9 target cells (E:T ratio 40:1).
FIG. 6. Effects of removal of NaF on NCC activation. NCC were harvested, incubated for three hours in media, washed, counted and added to duplicate tubes containing media alone or in the presence of 5, 10 and 20 mM NaF. Following a 90 minutes treatment time, NCC were either washed (closed circles) or added directly (open circles) to wells containing labeled IM-9 target cells (E:t ratio 40:1).
FIG. 7. Effects of Na3 VO4 on NCC with different levels of cytotoxicity. NCC were harvested from anterior kidneys of fish from three different sources. The cells were incubated in media for three hours, washed, counted and added to test tubes containing either media alone or media with 2.5, 5 and 10 mM vanadate. Following a two hours incubation time, the effectors were added to wells containing labeled IM-9 cells at a 40:1 E:T ratio.
FIG. 8. Effects of NaF on NCC with different levels of cytotoxicity. NCC were harvested from anterior kidneys of fish from three different sources. The cells were incubated in media for three hours, washed, counted and added to media or media with 5, 10 and 20 mM NaF. Following a two-hour incubation, NCC were added to wells containing ^51 chromium labeled IM-9 target cells for a final E:T ratio of 40:1.
as §1
NCC were obtained as previously described [Graves et al. (1984) supra]; Evans et al. (1984) supra]. […] NCC were then washed and resuspended at 20×10^6 cells/ml, and 35 μl aliquots were added to test tubes containing 315 μl media only (media control) or media containing the indicated treatments. After 2 hr incubation, the cells were mixed with ^51 Cr-labeled IM-9 target cells and incubated for 4-6 hours ([…]). Supernatants were harvested and cytotoxicity levels were calculated as previously described.
Membrane phosphorylation is maintained through a delicate equilibrium between cellular kinase and phosphatase activities.
In further studies, NCC were treated with different concentrations of protein phosphatase inhibitors for two hours and labeled IM-9 target cells were added for a four-hour microcytotoxicity assay (Table 8).

Data set [5] relates to CRC cells. The experiment in a line: Lytic activity of CRC cells (rat leukemic NK cells). The class given is cell-based, rat (F344). The text has this: The present invention relates to the relevance of protein phosphatase inhibitors to the protection of other species and other types of natural killer cells. For example, the CRC cells (tissue cultured cells obtained from peripheral blood of leukemic F344 rats) are perhaps more interesting (e.g., another model to study the effects of vanadate on altering immunosuppressed NK function) because these are in vitro maintained rat leukemic NK cells which have spontaneously lost cytotoxicity against YAC-1 target cells. […] It is possible that the discovery of this activity of protein phosphatase inhibitors may have widespread importance for studies of mechanisms of signaling in all vertebrates. Additionally, these inhibitors may have clinical importance in circumstances of immunosuppression, immunodeficiency and other conditions of altered immune activity.

In data set [6] the test system is NCC. The settings on record: relatively high concentrations.
For data set [7], the system named is protein phosphatase. The settings on record: cited from earlier work.
The subject of data set [8] is human prostate gland phosphotyrosyl protein phosphatase. Particulars: cited from earlier work.
The test system of data set [9] is calcineurin. The settings on record: cited from earlier work.

For `[Cl-].[Li+]` [Lithium chloride, lithium chloride], in data set [1], the “effect on cytotoxicity, stressed fish” value is reported as “no effects on cytotoxicity”. Moreover, the “toxicity to labeled IM-9 targets” value in data set [2] was “not toxic”. In [3], the “phosphotidylinositol phosphate phosphatase activity” value is listed as “specifically inhibited”.

With `[F-].[Na+]` [Sodium fluoride, sodium fluoride], the “cytotoxicity in presence of inhibitor, normal NCC” value in data set [4] was “significant increased cytotoxicity”. For the same molecule, the “effect on NCC cytotoxicity” value in [4] was “activated the cytotoxicity of NCC”. Besides, the “Percentage of control (NCC cytotoxic activity)” value in [4] (5 mM, E:T 25:1) came out at 210.3%; in data set [4] (5 mM, E:T 50:1), 136.9%; in data set [4] (5 mM, E:T 100:1), 123.2%; in data set [4] (10 mM, E:T 25:1) it was 333.3%; in data set [4] (10 mM, E:T 50:1), 183.9%; in [4] (10 mM, E:T 100:1), 153.7%. The “Percentage of control (NCC cytotoxic activity)” value in data set [4] (20 mM, E:T 25:1) is recorded as 635.3%; in data set [4] (20 mM, E:T 100:1), 157.3%. The “Percent Specific Release” value in [4] (5 mM, E:T 10, media 39) is 48%; in [4] (5 mM, E:T 25, media 4), 9%; in data set [4] (5 mM, E:T 50, media 21), 29%; in data set [4] (10 mM, E:T 10, media 39), 60%; in data set [4] (10 mM, E:T 25, media 4), 14%; in data set [4] (10 mM, E:T 50, media 21) it was 39%. In addition, the “Percent Specific Release” value in data set [4] (20 mM, E:T 10, media 39) is on record as 61%; in data set [4] (20 mM, E:T 25, media 4) it was 28%; in data set [4] (20 mM, E:T 50, media 21), 49%. The entries for the “effect of removal of inhibitor on NCC activation (words)” value in data set [4] (listed as NaF), in data set [4] (listed as fluoride) and in [4] (listed as sodium fluoride) were “almost completely obliterated activation”, “almost completely obliterated NCC activation” and “lost”, respectively. Moreover, the figures for the “Percent Specific Release (stressed fish)” value in data set [1] (NaF 5 mM), in data set [1] (NaF 10 mM) and in [1] (NaF 20 mM) were 1.4%, 4.4% and 22.0%, respectively. Further, the “toxicity to labeled IM-9 targets” value in data set [2] (20 mM) is “not toxic”. Besides, in [5], the “increase in the lytic activity of CRC cells” value is 3 -fold. Also, the “toxicity to NCC” value in data set [6] was “not toxic to NCC”. For the same molecule, the “protein phosphatase activity” value in data set [7] is recorded as “vanadate but not fluoride inhibited protein phosphatase activity”. Moreover, in [8], the “human prostate gland phosphotyrosyl protein phosphatase” value was “fluoride, but not vanadate inhibited human prostate gland phosphotyrosyl protein phosphatase”. The “calcineurin-mediated dephosphorylation” value in [9] is “fluoride, but not vanadate inhibited”.
